From patent US12427134B2, “Methods of reducing the risk of cardiovascular events in a subject with atrial fibrillation and/or atrial flutter” (priority 2019, dated 2025)

Tested on: hypertriglyceridemic patients with cardiovascular disease or at high risk for cardiovascular disease
Test: REDUCE-IT: treatment-emergent adverse events and serious adverse events (safety population)
Details: Safety population, N = 4089
Protocol: Specification of Variables and Procedures: Safety assessments included adverse events, clinical laboratory measurements (chemistry, hematology), 12-lead ECGs, vital signs (systolic and diastolic blood pressure, heart rate, respiratory rate, and body temperature), weight, waist circumference, and physical examinations as per Study Procedures in Table 1. […] All laboratory test results were evaluated by the investigator as to their clinical significance. Any observations at physical examinations or laboratory values considered by the investigator to be clinically significant were considered an adverse event.
An adverse event can therefore be any unfavorable and/or unintended sign (including an abnormal laboratory finding), symptom, or disease temporally associated with the use of an investigational medication product, whether or not related to the investigational medication product. All adverse events, including observed or volunteered problems, complaints, or symptoms, were recorded on the appropriate CRF. Each adverse event was evaluated for duration, intensity, and causal relationship with the study medication or other factors.
Adverse events, which included clinical laboratory test variables, were monitored from the time of informed consent until study participation was complete. Patients were instructed to report any adverse event that they experienced to the investigator. Beginning with Visit 2, investigators assessed for adverse events at each visit and recorded the event on the appropriate adverse event CRF.
Causality Assessment: The relationship of an adverse event to the administration of the study drug was assessed according to the following definitions: • No (unrelated, not related, no relation)—The time course between the administration of study drug and the occurrence or worsening of the adverse event rules out a causal relationship and another cause (concomitant drugs, therapies, complications, etc.) is suspected. • Yes (related, probably related, possibly related)—The time course between the administration of study drug and the occurrence or worsening of the adverse event is consistent with a causal relationship and no other cause (concomitant drugs, therapies, complications, etc.) can be identified.
Serious Adverse Events: A serious adverse event (SAE) is defined as an adverse event that meets any of the following criteria: • Results in death; • Is life-threatening—The term “life-threatening” in the definition of “serious” refers to an event in which the patient was at risk of death at the time of the event. […] Important medical events that may not result in death, be life threatening, or require hospitalization were considered an SAE when, based upon appropriate medical judgment, they may have jeopardized the patient and may have required medical or surgical intervention to prevent one of the outcomes listed above.
Analysis of Safety: All analyses of safety were conducted on the safety population, which was defined as all randomized patients. The safety assessment was based on the frequency of adverse events, physical exams, vital signs and safety laboratory tests. AEs with new onset during the study between the initiation of study drug and 30 days after the last dose of study drug for each patient was considered treatment-emergent (TEAEs). This included any AE with onset prior to initiation of study drug and increased severity after the treatment initiation.
This included overall incidence rates (regardless of severity and relationship to study drug), and incidence rates for moderate or severe adverse events. A summary of SAEs and adverse events leading to early discontinuation (for ≥30 days) were presented through data listings. Patients who restarted study drug were included in the summary of AEs leading to discontinuation.

CC/C=C\C/C=C\C/C=C\C/C=C\C/C=C\CCCC(=O)OCC [AMR101, eicosapentaenoic acid ethyl ester]
Serious adverse event - Anemia, n patients: 22 | Serious adverse event - Angina pectoris, % patients: (1.2) % | Serious adverse event - Angina pectoris, n patients: 48 | Serious adverse event - Angina unstable, % patients: (1.0) % | Serious adverse event - Angina unstable, n patients: 41 | Serious adverse event - Atrial fibrillation, % patients: (0.5) % | Serious adverse event - Atrial fibrillation, n patients: 21 | Serious adverse event - Blood and lymphatic system disorders (SOC), % patients: (1.0) % | Serious adverse event - Blood and lymphatic system disorders (SOC), n patients: 39 | Serious adverse event - Cardiac disorders (SOC), % patients: (4.7) % | Serious adverse event - Cardiac disorders (SOC), n patients: 192 | Serious adverse event - Cardiac failure congestive, % patients: (0.5) % | Serious adverse event - Cardiac failure congestive, n patients: 19 | Serious adverse event - Cellulitis, % patients: (0.9) % | Serious adverse event - Cellulitis, n patients: 36 | Serious adverse event - Chest pain, % patients: (1.6) % | Serious adverse event - Chest pain, n patients: 66 | Serious adverse event - Chronic obstructive pulmonary disease, % patients: (0.8) % | Serious adverse event - Chronic obstructive pulmonary disease, n patients: 33 | Serious adverse event - Gastrointestinal disorders (SOC), % patients: (4.7) % | Serious adverse event - Gastrointestinal disorders (SOC), n patients: 191 | Serious adverse event - Gastrointestinal hemorrhage, % patients: (0.6) % | Serious adverse event - Gastrointestinal hemorrhage, n patients: 26 | Serious adverse event - General disorders and administration site conditions (SOC), % patients: (3.4) % | Serious adverse event - General disorders and administration site conditions (SOC), n patients: 139 | Serious adverse event - Musculoskeletal and connective tissue disorders (SOC), % patients: (4.6) % | Serious adverse event - Musculoskeletal and connective tissue disorders (SOC), n patients: 188 | Serious adverse event - Neoplasms benign, malignant, and unspecified (incl cysts and polyps) (SOC), % patients: (5.4) % | Serious adverse event - Neoplasms benign, malignant, and unspecified (incl cysts and polyps) (SOC), n patients: 222 | Serious adverse event - Nervous system disorders (SOC), % patients: (2.5) % | Serious adverse event - Nervous system disorders (SOC), n patients: 104 | Serious adverse event - Non-cardiac chest pain, % patients: (1.2) % | Serious adverse event - Non-cardiac chest pain, n patients: 49 | Serious adverse event - Osteoarthritis, % patients: (2.0) % | Serious adverse event - Osteoarthritis, n patients: 81 | Serious adverse event - Pneumonia, % patients: (2.6) % | Serious adverse event - Pneumonia, n patients: 105 | Serious adverse event - Prostate cancer, % patients: (0.6) % | Serious adverse event - Prostate cancer, n patients: 26 | Serious adverse event - Pulmonary embolism, % patients: (0.3) % | Serious adverse event - Pulmonary embolism, n patients: 14 | Serious adverse event - Renal and urinary disorders (SOC), % patients: (2.9) % | Serious adverse event - Renal and urinary disorders (SOC), n patients: 120 | Serious adverse event - Respiratory, thoracic, and mediastinal disorders (SOC), % patients: (3.5) % | Serious adverse event - Respiratory, thoracic, and mediastinal disorders (SOC), n patients: 143 | Serious adverse event - Syncope, % patients: (0.7) % | Serious adverse event - Syncope, n patients: 28 | Severe TEAE, %: (19.7) % | Severe TEAE: Acute kidney injury, %: (0.7) % | Severe TEAE: Acute respiratory failure, %: (0.5) % | Severe TEAE: Angina pectoris, %: (0.2) % | Severe TEAE: Angina unstable, %: (0.3) % | Severe TEAE: Back pain, %: (0.5) % | Severe TEAE: Cardiac disorders, %: (2.4) % | Severe TEAE: Chest pain, %: (0.7) % | Severe TEAE: Chronic obstructive pulmonary disease, %: (0.4) % | Severe TEAE: General disorders and administration site conditions, %: (1.9) % | Severe TEAE: Musculoskeletal and connective tissue disorders, %: (2.9) % | Severe TEAE: Nervous system disorders, %: (1.9) % | Severe TEAE: Osteoarthritis, %: (0.8) % | Severe TEAE: Pneumonia, %: (1.5) % | Severe TEAE: Renal and urinary disorders, %: (1.9) % | Severe TEAE: Respiratory, thoracic, and mediastinal disorders, %: (2.5) % | Severe TEAE: Syncope, %: (0.3) % | Study Drug-Related Serious TEAE Leading to Withdrawal of Study Drug, %: (0.0) % | Study Drug-Related Serious TEAE, %: (0.2) % | Study Drug-Related TEAE Leading to Withdrawal of Study Drug, %: (3.4) % | Study Drug-Related TEAE, %: (12.6) % | Study drug-related TEAE leading to study drug withdrawal - Abdominal discomfort, % patients: (0.1) % | Study drug-related TEAE leading to study drug withdrawal - Abdominal discomfort, n patients: 6 | Study drug-related TEAE leading to study drug withdrawal - Abdominal distension, % patients: (0.1) % | Study drug-related TEAE leading to study drug withdrawal - Abdominal distension, n patients: 3 | Study drug-related TEAE leading to study drug withdrawal - Abdominal pain upper, % patients: (0.1) % | Study drug-related TEAE leading to study drug withdrawal - Abdominal pain upper, n patients: 4 | Study drug-related TEAE leading to study drug withdrawal - Abdominal pain, % patients: (0.0) % | Study drug-related TEAE leading to study drug withdrawal - Abdominal pain, n patients: 1 | Study drug-related TEAE leading to study drug withdrawal - Abnormal feces, % patients: (0.0) % | Study drug-related TEAE leading to study drug withdrawal - Abnormal feces, n patients: 0 | Study drug-related TEAE leading to study drug withdrawal - Arthralgia, % patients: (0.2) % | Study drug-related TEAE leading to study drug withdrawal - Arthralgia, n patients: 7 | Study drug-related TEAE leading to study drug withdrawal - Arthritis, % patients: (0.1) % | Study drug-related TEAE leading to study drug withdrawal - Arthritis, n patients: 3 | Study drug-related TEAE leading to study drug withdrawal - Constipation, % patients: (0.1) % | Study drug-related TEAE leading to study drug withdrawal - Constipation, n patients: 4 | Study drug-related TEAE leading to study drug withdrawal - Diarrhea, % patients: (1.0) % | Study drug-related TEAE leading to study drug withdrawal - Diarrhea, n patients: 41 | Study drug-related TEAE leading to study drug withdrawal - Dyspepsia, % patients: (0.1) % | Study drug-related TEAE leading to study drug withdrawal - Dyspepsia, n patients: 4 | Study drug-related TEAE leading to study drug withdrawal - Eructation, % patients: (0.1) % | Study drug-related TEAE leading to study drug withdrawal - Eructation, n patients: 3 | Study drug-related TEAE leading to study drug withdrawal - Flatulence, % patients: (0.1) % | Study drug-related TEAE leading to study drug withdrawal - Flatulence, n patients: 6 | Study drug-related TEAE leading to study drug withdrawal - Gastric disorder, % patients: (0.1) % | Study drug-related TEAE leading to study drug withdrawal - Gastric disorder, n patients: 4
